Data published in US20190053492A1, “SUBSTITUTED PYRIDINE COMPOUNDS AS PESTICIDES” (Bayer CropScience Aktiengesellschaft, priority 2016, published 2019).
Like-named read-outs stand apart in the source and are kept apart here.

Key:
[1] = log P by HPLC on reversed-phase column (C 18), EEC Directive 79/831 Annex V.A8; type: physicochemical; conditions: 55° C.; for chromatographic logP: reversed-phase HPLC column (C 18); for LOGP_HCOOH: log P (HCOOH)
Protocol: Temperature: 55° C. […] Called log P (HCOOH) in the table. […] Called log P (neutral) in the table.

Spodoptera frugiperda = Spodoptera frugiperda spray test; type: in vivo; conditions: after 7 days, maize leaf discs
Protocol: Spodoptera frugiperda—Spray Test
Solvent: 78.0 parts by weight of acetone • • 1.5 parts by weight of dimethylformamide
Emulsifier: alkylaryl polyglycol ether
To produce a suitable active ingredient formulation, 1 part by weight of active ingredient is dissolved with the specified parts by weight of solvent and made up with water containing an emulsifier concentration of 1000 ppm until the desired concentration is attained. To produce further test concentrations, the formulation is diluted with emulsifier-containing water.
Leaf discs of maize (Zea mays) are sprayed with an active ingredient formulation of the desired concentration and, after drying, populated with caterpillars of the armyworm (Spodoptera frugiperda).
After 7 days, the efficacy in % is determined. 100% means that all the caterpillars have been killed; 0% means that no caterpillar has been killed.

[2] = pH 2.7, LC-MS acidic range, pH 2.7, 0.1% formic acid/acetonitrile, read-out: log P (acidic) / log P (HCOOH)
[3] = pH 7.8, LC-MS neutral range, pH 7.8, ammonium hydrogencarbonate/acetonitrile, read-out: log P (neutral)
[4] = acidic range pH 2.7, 0.1% aqueous formic acid and acetonitrile, reversed-phase column (C 18)
[5] = log P, neutral range, HPLC on reversed-phase column (C 18)
[6] = log P (neutral), HPLC reversed-phase column (C 18)
[7] = acidic range at pH 2.7, 0.1% aqueous formic acid and acetonitrile, HPLC on reversed-phase column (C 18)

chromatographic logP [1, 2]	chromatographic logP [1, 3]	LOGP_HCOOH [1, 4]	LOGP_NEUTRAL [1, 5]	SMILES	other results
3.85	3.89			N#Cc1cc(-c2ccc(OC(F)(F)F)cc2)cc(NC(=O)C2CC2)n1 [XXIX-1, N-{6-Cyano-4-[4-(trifluoromethoxy)phenyl]pyridin-2-yl}cyclopropanecarboxamide]	
	2.4			CN(C(=O)c1cc(-c2ccc(C(F)(F)F)cc2)cc(N)n1)C1CC1 [XX-2, 6-Amino-N-cyclopropyl-N-methyl-4-[4-(trifluoromethyl)phenyl]pyridine-2-carboxamide]	
		4.67	4.53	O=C(NCc1ccc(Cl)c(F)c1)c1cc(-c2ccc(OC(F)(F)F)cc2)cc(NC(=O)C2CC2)n1 [Example I-062]	efficacy (caterpillars killed) (Spodoptera frugiperda; application rate 100 g/ha): 83%; efficacy (caterpillars killed) (Spodoptera frugiperda; application rate 500 g/ha): 100%
		3.28	3.21	N#Cc1ccc(CNC(=O)c2cc(-c3ccc(OC(F)F)cc3)cc(NC(=O)C3CC3)n2)cc1 [Example I-029]	efficacy (caterpillars killed) (Spodoptera frugiperda; application rate 500 g/ha): 83%
		2.73	2.72	CN(C(=O)c1cc(-c2ccc(C(F)(F)F)cc2)cc(NC(=O)C2CC2)n1)c1cccnc1 [Example I-034]	efficacy (caterpillars killed) (Spodoptera frugiperda; application rate 500 g/ha): 100%
		4.68		N#Cc1ccc(CNC(=O)c2cc(-c3ccc(OC(F)(F)F)cc3)cc(NC(=O)Cc3ccc(C(F)(F)F)cc3)n2)cc1 [Example I-260]	efficacy (caterpillars killed) (Spodoptera frugiperda; application rate 100 g/ha): 100%; efficacy (caterpillars killed) (Spodoptera frugiperda; application rate 500 g/ha): 100%; LOGP_NEUTRAL [1, 6]: 4.66
		5.09	4.93	O=C(NCc1cc(F)c(Cl)cc1Cl)c1cc(-c2ccc(C(F)(F)F)cc2)cc(NC(=O)C2CC2)n1 [Example I-059]	efficacy (caterpillars killed) (Spodoptera frugiperda; application rate 500 g/ha): 100%
				N#Cc1ccc(CNC(=O)c2cc(-c3ccc(C(F)(F)F)nc3F)cc(NC(=O)C3CC3)n2)cc1 [Example I-143]	efficacy (caterpillars killed) (Spodoptera frugiperda; application rate 100 g/ha): 100%; LOGP_HCOOH [1, 7]: 3.24
		4.25		N#Cc1ccc(CNC(=O)c2cc(-c3ccc(OC(F)(F)F)cc3)cc(NC(=O)c3ccc(Cl)nc3)n2)cc1 [Example I-256]	efficacy (caterpillars killed) (Spodoptera frugiperda; application rate 500 g/ha): 100%; LOGP_NEUTRAL [1, 6]: 4.20
		3.81	3.67	Cn1ncc2cccc(CNC(=O)c3cc(-c4ccc(OC(F)(F)F)cc4)cc(NC(=O)C4CC4)n3)c21 [Example I-092]	efficacy (caterpillars killed) (Spodoptera frugiperda; application rate 500 g/ha): 100%
		5.00	4.89	O=C(NCc1ccc(Cl)cc1Cl)c1cc(-c2ccc(C(F)(F)F)cc2)cc(NC(=O)C2CC2)n1 [Example I-010]	efficacy (caterpillars killed) (Spodoptera frugiperda; application rate 500 g/ha): 100%
		4.49	4.43	O=C(NCc1cccc(Cl)c1)c1cc(-c2ccc(C(F)(F)F)cc2)cc(NC(=O)C2CC2)n1 [Example I-006]	efficacy (caterpillars killed) (Spodoptera frugiperda; application rate 500 g/ha): 100%
			3.51	N#CCCCCCNC(=O)c1cc(-c2ccc(OC(F)(F)F)cc2)cc(NC(=O)C2CC2)n1 [Example I-200]	efficacy (caterpillars killed) (Spodoptera frugiperda; application rate 100 g/ha): 100%; efficacy (caterpillars killed) (Spodoptera frugiperda; application rate 500 g/ha): 100%; LOGP_HCOOH [1, 7]: 3.59
4.92	4.97			Fc1cc(-c2cc(Cl)nc(Cl)c2)ccc1C(F)(F)C(F)(F)F [XIV-2, 2,6-Dichloro-4-[3-fluoro-4-(pentafluoroethyl)phenyl]pyridine]	
3.63	3.63			CNc1cc(-c2ccc(OC(F)(F)F)cc2)cc(C(=O)NCc2ccc(C#N)cc2)n1 [XVIII-1, N-(4-Cyanobenzyl)-6-(methylamino)-4-[4-(trifluoromethoxy)phenyl]pyridine-2-carboxamide]	
				N#CC1CCN(C(=O)c2cc(-c3ccc(OC(F)(F)F)cc3)cc(NC(=O)C3CC3)n2)CC1 [Example I-199]	LOGP_HCOOH [1, 7]: 3.21
	3.19			N#Cc1ccc(CNC(=O)c2cc(-c3ccc(C(F)(F)F)cc3)cc(N)n2)cc1F [XX-3, 6-Amino-N-(4-cyano-3-fluorobenzyl)-4-[4-(trifluoromethyl)phenyl]pyridine-2-carboxamide]	
1.58	1.25			N#Cc1ccc(CNC(=O)c2cc(B(O)O)cc(NC(=O)C3CC3)n2)cc1 [Example X-1b, {2-[(4-Cyanobenzyl)carbamoyl]-6-[(cyclopropylcarbonyl)amino]pyridin-4-yl}boric acid]	
			4.57	O=C(NC1CCCCC1)c1cc(-c2ccc(OC(F)(F)F)cc2)cc(NC(=O)C2CC2)n1 [Example I-168]	LOGP_HCOOH [1, 7]: 4.74
4.76	4.64			O=C(Nc1cc(-c2ccc(C(F)(F)C(F)(F)F)c(F)c2)cc(Cl)n1)C1CC1 [XXII-1, N-{6-Chloro-4-[3-fluoro-4-(pentafluoroethyl)phenyl]pyridin-2-yl}cyclopropanecarboxamide]	

chromatographic logP [1, 2]	chromatographic logP [1, 3]	LOGP_HCOOH [1, 4]	LOGP_NEUTRAL [1, 5]	SMILES	other results
4.63	4.62			FC(F)(F)Oc1ccc(-c2cc(Cl)nc(Cl)c2)cc1 [XIV-1, 2,6-Dichloro-4-[4-(trifluoromethoxy)phenyl]pyridine]	
		4.45		Cc1cc(-c2cc(NC(=O)C3CC3)nc(C(=O)NCc3ccc(C#N)cc3)c2)cc(F)c1C(F)(F)C(F)(F)F [Example I-267]	
			3.32	N#Cc1ccc(CNC(=O)c2cc(-c3ccc(OC(F)(F)F)cc3)cc(NC(=O)C3(C4CC4)CC3)n2)cc1 [Example I-203]	
4.23	4.19			N#Cc1ccc(CNC(=O)c2cc(-c3ccc(OC(F)(F)F)cc3)cc(Cl)n2)cc1 [XVII-1, 6-Chloro-N-(4-cyanobenzyl)-4-[4-(trifluoromethoxy)phenyl]pyridine-2-carboxamide]	
3.85	3.83			Nc1cc(-c2ccc(C(F)(F)C(F)(F)F)c(F)c2)cc(Cl)n1 [XXI-1, 6-Chloro-4-[3-fluoro-4-(pentafluoroethyl)phenyl]pyridin-2-amine]	
2.72	1.25			O=C(O)c1cc(-c2ccc(OC(F)(F)F)cc2)cc(NC(=O)C2CC2)n1 [6-[(Cyclopropylcarbonyl)amino]-4-[4-(trifluoromethoxy)phenyl]pyridine-2-carboxylic acid]	
4.77	4.72			C=Cc1cc(-c2ccc(OC(F)(F)F)cc2)cc(Cl)n1 [XV-1, 2-Chloro-4-[4-(trifluoromethoxy)phenyl]-6-vinylpyridine]	
2.57	2.55			NNC(=O)c1cc(-c2ccc(OC(F)(F)F)cc2)cc(NC(=O)C2CC2)n1 [XXIV-1, N-{6-(Hydrazinocarbonyl)-4-[4-(trifluoromethoxy)phenyl]pyridin-2-yl}cyclopropanecarboxamide]	
		3.26		N#Cc1cccc(CNC(=O)c2cc(-c3ccc(F)cc3)cc(NC(=O)C3CC3)n2)c1 [Example I-001]	
			3.18	CON(C)C(=O)c1cc(-c2ccc(OC(F)(F)F)cc2)cc(NC(=O)C2CC2)n1 [Example I-183]	LOGP_HCOOH [1, 7]: 3.22
3	1.17			O=C(O)c1cc(-c2ccc(OC(F)(F)F)cc2)cc(Cl)n1 [XVI-1, 6-Chloro-4-[4-(trifluoromethoxy)phenyl]pyridine-2-carboxylic acid]	
	2.82			N#Cc1ccc(CNC(=O)c2cc(-c3ccc(Cl)cc3)cc(N)n2)cc1 [XX-1, 6-Amino-4-(4-chlorophenyl)-N-(4-cyanobenzyl)pyridine-2-carboxamide]	
		4.23	4.04	CC(C)C(=O)Nc1cc(-c2ccc(C(F)(F)F)cc2)cc(C(=O)NCc2cc(F)c(C#N)c(F)c2)n1 [Example I-072]	
		4.67		N#Cc1ccc(CNC(=O)c2cc(-c3cc(F)c(C(F)(F)C(F)(F)F)c(Cl)c3)cc(NC(=O)C3CC3)n2)cc1 [Example I-278]	LOGP_NEUTRAL [1, 6]: 4.52
3.63	3.54			COC(=O)c1cc(-c2ccc(OC(F)(F)F)cc2)cc(NC(=O)C2CC2)n1 [XXIII-2, Methyl 6-[(cyclopropylcarbonyl)amino]-4-[4-(trifluoromethoxy)phenyl]pyridine-2-carboxylate]	
		4.11		N#Cc1ccc(CNC(=O)c2cc(-c3cc(F)c(C(F)(F)C(F)(F)F)cc3F)cc(NC(=O)C3CC3)n2)cc1 [Example I-275]	
		4.34		N#Cc1ccc(CNC(=O)c2cc(-c3ccc(C(F)(F)C(F)(F)F)c(F)c3Cl)cc(NC(=O)C3CC3)n2)cc1 [Example I-266]	
			3.82	N#Cc1ccc(CNC(=O)c2cc(-c3ccc(OC(F)=C(F)F)cc3)cc(NC(=O)C3CC3)n2)cc1 [Example I-171]	LOGP_HCOOH [1, 7]: 3.96
3.18	3.17			NC(=O)c1cc(-c2ccc(C(F)(F)C(F)(F)F)c(F)c2)cc(NC(=O)C2CC2)n1 [XXIII-1, 6-[(Cyclopropylcarbonyl)amino]-4-[3-fluoro-4-(pentafluoroethyl)phenyl]pyridine-2-carboxamide]	
1.02				Nc1cc(-c2ccc(Cl)cc2)cc(C(=O)O)n1 [XIX-1, 6-Amino-4-(4-chlorophenyl)pyridine-2-carboxylic acid]	
